Assay results reported in patent US4594348A, “Use of some 2-[2-[4-phenyl-1-piperazinyl]ethyl]-1H-naphth-[1,2-D]imidazole derivatives and their pharmaceutically acceptable salts in the treatment of cardiovascular diseases” (Gruppo Lepetit S.p.A., priority 1984, dated 1986).

Assays:
[1] = tested on: conscious normotensive dogs; test: Blood pressure in conscious normotensive dogs (oral); assay type: in vivo, dog (mongrel); conditions: for % systolic blood pressure variation: Table II, oral; for Mean systolic blood pressure / % Δ of mean systolic blood pressure: Table V, single oral 20 mg/kg
Experimental: (§1) As for the experiments with conscious normotensive dogs, mongrel dogs with incannulated abdominal aorta or with incannulated abdominal aorta and cardiac left ventricle were used. The compounds were administered by oral route as powder in gelatine capsules. Mean blood pressure (M.B.P.) was registered directly using a Bentley pressure transducer.

[2] = tested on: conscious renal hypertensive dogs; test: Systolic blood pressure in conscious renal hypertensive dogs (oral, Goldblatt's method); assay type: in vivo, dog (mongrel); conditions: for % systolic pressure variation: Table I; for % Δ (% variation of the S.B.P. over the basal value) / S.B.P. (systolic blood pressure): Table III; for S.B.P. (systolic blood pressure): mean ± SE
Experimental: The experiments herein described which use renal hypertensive dogs are conducted essentially as described in the above cited text.
(§2) More particularly, in the experiments with conscious renal hypertensive dogs, mongrel dogs with two clips on the renal arteries were used according to the Goldblatt's method. The compounds were administered by oral route as powder in gelatine capsules. Systolic blood pressure (SBP) was registered at the tail (indirect method).
^a S.B.P. = Systolic blood pressure. It is determined after oral
administration where three animals were employed for each dose. It is
expressed in mmHg as mean value ± SE.
^b % Δ = % variation of the S.B.P. over the basal value (time
0) at the indicated time after administration.

mongrel dogs [3] = test: CNS-depressant activity in mongrel dogs (oral); conditions: 100 mg/kg
mongrel dogs [4] = conditions: dog, in vivo
renal hypertensive dogs [5] = test: CNS depressant effect and tachycardia during prolonged (7-day) treatment in dogs; assay type: in vivo, dog; conditions: per os 10 mg/kg/die, 7 days
renal hypertensive dogs [6] = test: Tachiphylaxis experiment: daily oral administration for 7 consecutive days, systolic blood pressure; assay type: in vivo, dog; conditions: for % Δ of S.B.P., peak effect (7h) / S.B.P., basal value / S.B.P., peak effect (7h) / % Δ of S.B.P., basal value: Table IV, 10 mg/kg/die per os
mice = test: "running-fit" test (antagonism of the effects of morphine); assay type: in vivo, mouse; conditions: morphine 60 mg/Kg s.c.
Experimental: This test is conducted essentially as described in the literature.

renal hypertensive dogs [7] = test: Heart rate in renal hypertensive dogs; assay type: in vivo, dog (mongrel); conditions: experiments of Table III, oral
Experimental: as §2

[8] = tested on: conscious normotensive dogs; test: Myocardial contractility in conscious normotensive dogs; assay type: in vivo, dog (mongrel); conditions: single oral 20 mg/kg; for Myocardial contractility / % Δ of myocardial contractility: Table V
Experimental: as §1
Myocardial contractility was calculated as
1/P·dp/dt ^(max)
The results of this experiment, which was conducted after a single oral administration of 20 mg/kg of the test compound, are summarized below: […]

Beagle dogs = conditions: dog, in vivo, po
[9] = Acute toxicity (LD50) in mice; conditions: mouse, in vivo
Experimental: The LD50 values of the compounds of the invention are generally higher than 500 mg/kg when given per os and generally higher than 200-300 mg/kg when given intraperitoneally to mice. In particular, the approximate LD50 values for compound 3 in mice were 1000 mg/kg after oral administration and 600 mg/kg after i.p. administration. […] Representative experiments were conducted essentially as described by B. N. Ames, J. McCann., E. Yamasaki, "Methods for detecting carcinogens and mutagens with the salmonella/microsome mutagenicy test" in Mutation Research, 31, 347-364, (1975).

[10] = renal hypertensive dogs, oral, 10 mg/kg
[11] = renal hypertensive dogs, oral, 20 mg/kg

For CC(C)n1c(CCN2CCN(c3ccccc3)CC2)nc2ccc3ccccc3c21 [Compound 1, 2-[2-(4-phenyl-1-piperazinyl)ethyl]-1-(1-methylethyl)-1H-naphth[1,2-d]imidazole], the “% systolic blood pressure variation” value ([1]; 1 mg/kg) was -17% and the “% systolic blood pressure variation” value ([1]; 5 mg/kg) was -37%.
In the case of Cn1c(CCN2CCN(c3ccccc3)CC2)nc2ccc3ccccc3c21 [Compound 2, 2-[2-(4-phenyl-1-piperazinyl)ethyl]-1-methyl-1H-naphth-[1,2-d]imidazole], the “% systolic pressure variation” value [2, 10] is reported as -32% and the “% systolic blood pressure variation” value ([1]; 10 mg/kg) is reported as -30%.
With CC(C)n1c(CCN2CCN(c3cccc(C(F)(F)F)c3)CC2)nc2ccc3ccccc3c21.O=C(O)CC(O)(CC(=O)O)C(=O)O [Compound 3, 2-[2-[4-(3-trifluoromethylphenyl)-1-piperazinyl]ethyl]-1-(1-methylethyl)-1H-naphth[1,2-d]imidazole, 2-hydroxy-1,2,3-propantricarboxylate] the “signs of CNS-depression” value (mongrel dogs [3]) was “slight sedation and very slight motor incoordination”, the “dose beginning CNS-depressant activity relative to effective antihypertensive dose” value (mongrel dogs [4]) was “at least about ten times higher” and the “dose at which signs of CNS-depression begin” value (mongrel dogs [4]; po) was 100 mg/kg. The “CNS depressant effect during the prolonged treatment” value (renal hypertensive dogs [5]) was “no tachycardia or CNS depressant effect was observed”, the “tachycardia during the prolonged treatment” value (renal hypertensive dogs [5]) was “no tachycardia” and the “% Δ of S.B.P., peak effect (7h)” value (renal hypertensive dogs [6]; day 1 of treatment) was -20%. For the same molecule, the “S.B.P., basal value” (renal hypertensive dogs [6]; day 1 of treatment) was 210 mmHg, the “S.B.P., peak effect (7h)” value (renal hypertensive dogs [6]; day 1 of treatment) was 170 mmHg and the “% Δ of S.B.P., basal value” (renal hypertensive dogs [6]; day 3 of treatment) was -5%. The “% Δ of S.B.P., peak effect (7h)” value (renal hypertensive dogs [6]; day 3 of treatment) was -20%, the “S.B.P., basal value” (renal hypertensive dogs [6]; day 3 of treatment) was 200 mmHg and the “S.B.P., peak effect (7h)” value (renal hypertensive dogs [6]; day 3 of treatment) was 170 mmHg. For the same molecule, the “% Δ of S.B.P., basal value” (renal hypertensive dogs [6]; day 5 of treatment) was -12%, the “% Δ of S.B.P., peak effect (7h)” value (renal hypertensive dogs [6]; day 5 of treatment) was -24% and the “S.B.P., basal value” (renal hypertensive dogs [6]; day 5 of treatment) was 185 mmHg. The “S.B.P., peak effect (7h)” value (renal hypertensive dogs [6]; day 5 of treatment) was 160 mmHg, the “% Δ of S.B.P., basal value” (renal hypertensive dogs [6]; day 7 of treatment) was -15% and the “% Δ of S.B.P., peak effect (7h)” value (renal hypertensive dogs [6]; day 7 of treatment) was -29%. For the same molecule, the “S.B.P., basal value” (renal hypertensive dogs [6]; day 7 of treatment) was 180 mmHg, the “S.B.P., peak effect (7h)” value (renal hypertensive dogs [6]; day 7 of treatment) was 150 mmHg and the tachiphylaxis (renal hypertensive dogs [6]; per os daily for 7 consecutive days, 10 mg/kg/die) was “proved not to induce tachiphylaxis”. For the same molecule, the “antagonism of morphine in "running-fit" test” value (mice; 30 mg i.p.) was “inactive”, the “antagonism of morphine in "running-fit" test” value (mice; 60 mg per os) was “inactive” and the heart rate (renal hypertensive dogs [7]) was “no increase in the heart rate was observed but only a slight and transient decrease”. For the same molecule, the Myocardial contractility ([8]; 0 min (basal)) was 48 mmHg sec^-1, the “% Δ of myocardial contractility” value ([8]; 60 min) was “+10%” and the Myocardial contractility ([8]; 60 min) was 53 mmHg sec^-1. The “% Δ of myocardial contractility” value ([8]; 120 min) was “+12%”, the Myocardial contractility ([8]; 120 min) was 54 mmHg sec^-1 and the “% Δ of myocardial contractility” value ([8]; 180 min) was “+10%”. For the same molecule, the Myocardial contractility ([8]; 180 min) was 53 mmHg sec^-1, the “% Δ of myocardial contractility” value ([8]; 300 min) was “+12%” and the Myocardial contractility ([8]; 300 min) was 54 mmHg sec^-1. The “% Δ of myocardial contractility” value ([8]; 360 min) was “+6%”, the Myocardial contractility ([8]; 360 min) was 51 mmHg sec^-1 and the “effect on myocardial contractility (in words)” value ([8]; conscious normotensive dogs) was “proved not to reduce the myocardial contractility”. The minimal effective dose ([2]; Canis lupus familiaris, po, read-out: dose active in reducing the systolic blood pressure) was no more than 5 mg/kg, the “% systolic pressure variation” value [2, 11] was -24% and the “% systolic pressure variation” value ([2]; renal hypertensive dogs, oral, 30 mg/kg) was -20%. The “% Δ (% variation of the S.B.P. over the basal value)” value ([2]; oral 5 mg/kg, 1 h) was -3%, the “S.B.P. (systolic blood pressure)” value ([2]; oral 5 mg/kg, 1 h) was 205 ± 5 mmHg and the “% Δ (% variation of the S.B.P. over the basal value)” value ([2]; oral 5 mg/kg, 3 h) was -10%. The “S.B.P. (systolic blood pressure)” value ([2]; oral 5 mg/kg, 3 h) was 190 ± 5 mmHg, the “% Δ (% variation of the S.B.P. over the basal value)” value ([2]; oral 5 mg/kg, 5 h) was -12% and the “S.B.P. (systolic blood pressure)” value ([2]; oral 5 mg/kg, 5 h) was 185 ± 7 mmHg. For the same molecule, the “% Δ (% variation of the S.B.P. over the basal value)” value ([2]; oral 5 mg/kg, 7 h) was -10%, the “S.B.P. (systolic blood pressure)” value ([2]; oral 5 mg/kg, 7 h) was 190 ± 4 mmHg and the “S.B.P. (systolic blood pressure)” value ([2]; oral 5 mg/kg, time 0 h (basal value), 3 animals) was 210 ± 7 mmHg. The “% Δ (% variation of the S.B.P. over the basal value)” value ([2]; oral 10 mg/kg, 1 h) was -8%, the “S.B.P. (systolic blood pressure)” value ([2]; oral 10 mg/kg, 1 h) was 190 ± 4 mmHg and the “% Δ (% variation of the S.B.P. over the basal value)” value ([2]; oral 10 mg/kg, 3 h) was -13%. The “S.B.P. (systolic blood pressure)” value ([2]; oral 10 mg/kg, 3 h) was 180 ± 7 mmHg, the “% Δ (% variation of the S.B.P. over the basal value)” value ([2]; oral 10 mg/kg, 5 h) was -22% and the “S.B.P. (systolic blood pressure)” value ([2]; oral 10 mg/kg, 5 h) was 160 ± 10 mmHg. For the same molecule, the “% Δ (% variation of the S.B.P. over the basal value)” value ([2]; oral 10 mg/kg, 7 h) was -18%, the “S.B.P. (systolic blood pressure)” value ([2]; oral 10 mg/kg, 7 h) was 170 ± 8 mmHg and the “S.B.P. (systolic blood pressure)” value ([2]; oral 10 mg/kg, time 0 h (basal value)) was 205 ± 7 mmHg. For the same molecule, the “% Δ (% variation of the S.B.P. over the basal value)” value ([2]; oral 20 mg/kg, 1 h) was -8%, the “S.B.P. (systolic blood pressure)” value ([2]; oral 20 mg/kg, 1 h) was 175 ± 7 mmHg and the “% Δ (% variation of the S.B.P. over the basal value)” value ([2]; oral 20 mg/kg, 3 h) was -14%. The “S.B.P. (systolic blood pressure)” value ([2]; oral 20 mg/kg, 3 h) was 165 ± 8 mmHg, the “% Δ (% variation of the S.B.P. over the basal value)” value ([2]; oral 20 mg/kg, 5 h) was -27% and the “S.B.P. (systolic blood pressure)” value ([2]; oral 20 mg/kg, 5 h) was 140 ± 7 mmHg. For the same molecule, the “% Δ (% variation of the S.B.P. over the basal value)” value ([2]; oral 20 mg/kg, 7 h) was -32%, the “S.B.P. (systolic blood pressure)” value ([2]; oral 20 mg/kg, 7 h) was 130 ± 7 mmHg and the “S.B.P. (systolic blood pressure)” value ([2]; oral 20 mg/kg, time 0 h (basal value)) was 190 ± 8 mmHg. The “duration of the reduction of the blood pressure” value ([2]; renal hypertensive dogs, oral) was “still present seven hours after administration”, the “dose at which CNS-depressant effects begin” value (Beagle dogs) was “higher than 100 mg/kg” and the LD50 ([9]; ip, intraperitoneal) was roughly 600 mg/kg. The LD50 ([9]; po, per os) was roughly 1000 mg/kg, the “% systolic blood pressure variation” value ([1]; 10 mg/kg) was -16% and the “% systolic blood pressure variation” value ([1]; 20 mg/kg) was -15%. The “Mean systolic blood pressure” value ([1]; 0 min (basal)) was 120 mmHg, the “% Δ of mean systolic blood pressure” value ([1]; 60 min) was -0% and the “Mean systolic blood pressure” value ([1]; 60 min) was 120 mmHg. The “% Δ of mean systolic blood pressure” value ([1]; 120 min) was -12%, the “Mean systolic blood pressure” value ([1]; 120 min) was 106 mmHg and the “% Δ of mean systolic blood pressure” value ([1]; 180 min) was -15%. The “Mean systolic blood pressure” value ([1]; 180 min) was 102 mmHg, the “% Δ of mean systolic blood pressure” value ([1]; 300 min) was -17% and the “Mean systolic blood pressure” value ([1]; 300 min) was 100 mmHg. The “% Δ of mean systolic blood pressure” value ([1]; 360 min) was -12% and the “Mean systolic blood pressure” value ([1]; 360 min) was 106 mmHg.
With Cn1c(CCN2CCN(c3ccc(Cl)cc3)CC2)nc2ccc3ccccc3c21 [Compound 4, 2-[2-[4-(4-chlorophenyl)-1-piperazinyl]ethyl]-1-methyl-1H-naphth[1,2-d]imidazole] the “% systolic pressure variation” value [2, 10] was -29% and the “% systolic pressure variation” value [2, 11] was -31%.
With COc1cccc(N2CCN(CCc3nc4ccc5ccccc5c4n3C(C)C)CC2)c1 [Compound 5, 2-[2-[4-(3-methoxyphenyl)-1-piperazinyl]ethyl]-1-(1-methylethyl)-1H-naphth[1,2-d]imidazole] the “% systolic pressure variation” value [2, 11] was -20%.
In the case of Cn1c(CCN2CCN(c3cccc(C(F)(F)F)c3)CC2)nc2ccc3ccccc3c21 [Compound 6, 2-[2-[4-(3-trifluoromethylphenyl)-1-piperazinyl]ethyl]-1-methyl-1H-naphth[1,2-d]imidazole], the “% systolic pressure variation” value [2, 11] is reported as -39%.
In the case of CC(C)n1c(CCN2CCN(c3ccc(Cl)cc3)CC2)nc2ccc3ccccc3c21 [Compound 7, 2-[2-[4-(4-chlorophenyl)-1-piperazinyl]ethyl]-1-(1-methylethyl)-1H-naphth[1,2-d]imidazole], the “% systolic pressure variation” value ([2]; renal hypertensive dogs, oral, 2 mg/kg) is reported as -14% and the “% systolic pressure variation” value ([2]; renal hypertensive dogs, oral, 5 mg/kg) is reported as -35%.
